Measurements taken from patent publication US20220387602A1, “BIFUNCTIONAL DEGRADERS AND THEIR METHODS OF USE” (NOVARTIS AG, priority 2019, published 2022).

Key:
BTK = target: T1, BTK (Homo sapiens, UniProt Q06187); assay: BTK-GFP protein abundance flow cytometry assay in HEK293A; format: cell-based; settings: 24 h; for BTK degradation Amax: % protein remaining at the concentration at which maximum degradation is seen, HEK293A; for DC50: concentration at which 50% maximal degradation was observed, HEK293A BTK-GFP sensor cells
T1 construct: the BTK open reading frame (ORF) was first shuttled from a pcDNA-DEST40-BTK vector; expressed in transfected cells; host or cells: HEK293A (Invitrogen R70507), lentiviral transduction, blasticidin selection
T1 sequence (Q06187 whole entry): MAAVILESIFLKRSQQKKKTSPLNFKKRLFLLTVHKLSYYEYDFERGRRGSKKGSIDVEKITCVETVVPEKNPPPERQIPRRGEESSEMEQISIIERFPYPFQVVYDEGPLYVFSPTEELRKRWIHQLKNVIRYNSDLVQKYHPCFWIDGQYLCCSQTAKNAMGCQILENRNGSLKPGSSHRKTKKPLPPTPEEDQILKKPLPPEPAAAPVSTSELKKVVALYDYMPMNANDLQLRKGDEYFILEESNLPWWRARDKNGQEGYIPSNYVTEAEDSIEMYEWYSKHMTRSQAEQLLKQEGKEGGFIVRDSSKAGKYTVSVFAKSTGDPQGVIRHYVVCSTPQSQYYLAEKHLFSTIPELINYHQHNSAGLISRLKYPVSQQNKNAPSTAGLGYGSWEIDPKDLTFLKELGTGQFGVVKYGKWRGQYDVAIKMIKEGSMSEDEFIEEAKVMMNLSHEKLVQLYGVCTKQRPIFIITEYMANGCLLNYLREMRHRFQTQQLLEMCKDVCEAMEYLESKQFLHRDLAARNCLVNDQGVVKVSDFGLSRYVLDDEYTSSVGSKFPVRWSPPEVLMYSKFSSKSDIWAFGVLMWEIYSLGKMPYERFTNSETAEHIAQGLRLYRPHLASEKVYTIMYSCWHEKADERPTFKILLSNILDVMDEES
Summary of the method: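 HEK293A cells stably expressing bicistronic BTK-GFP-iresRFP were treated 24 h at 37° C with 10-point 1:3 dilutions from 10 μM, DMSO at 0.1%. GFP was read by flow cytometry as median of 5,000 single cells, scaled between RFP-only cells (0%) and DMSO controls (100%). DC50 = concentration at 50% degradation; Amax = % protein remaining at maximal degradation.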

CSK = target: T2, CSK (Homo sapiens, UniProt P41240); assay: CSK-GFP protein abundance flow cytometry assay in HEK293A; format: cell-based; settings: for CSK Amax: % protein remaining at the concentration of maximum degradation; for DC50: HEK293A CSK-GFP sensor cells, 24 h
T2 construct: EGFP (after a Leu that replaces the STOP codon); expressed in transfected cells; host or cells: HEK293A (Invitrogen R70507), lentiviral transduction
T2 sequence (P41240 whole entry): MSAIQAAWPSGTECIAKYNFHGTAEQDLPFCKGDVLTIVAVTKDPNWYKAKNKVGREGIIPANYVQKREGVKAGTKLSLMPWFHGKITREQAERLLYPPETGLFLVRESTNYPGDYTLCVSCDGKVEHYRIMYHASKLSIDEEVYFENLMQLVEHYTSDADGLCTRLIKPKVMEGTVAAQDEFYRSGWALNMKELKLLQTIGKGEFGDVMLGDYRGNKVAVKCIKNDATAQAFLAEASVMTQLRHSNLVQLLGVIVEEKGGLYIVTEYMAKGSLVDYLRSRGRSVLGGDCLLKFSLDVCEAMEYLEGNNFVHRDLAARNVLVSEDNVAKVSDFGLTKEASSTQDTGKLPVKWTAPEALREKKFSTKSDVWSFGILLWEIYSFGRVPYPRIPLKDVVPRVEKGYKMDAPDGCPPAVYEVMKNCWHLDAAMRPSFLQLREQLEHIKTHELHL
Experimental: Degradation of BTK, CSK, ABL2, EPHA4 and YES1 was measured in HEK293A cells (Invitrogen R70507) expressing either BTK-GFP and RFP, CSK-GFP and mCherry, GFP-ABL2 and mCherry, EPHA4-GFP and mCherry, or YES1-GFP and mCherry from a stably integrated bicistronic BTK-GFP-iresRFP, CSK-GFP-CHYSEL-mCherry, GFP-ABL2-CHYSEL-mCherry, EPHA4-GFP-CHYSEL-mCherry, or YES1-GFP-CHYSEL-mCherry construct, respectively. Reduction of the GFP signal measured by flow cytometry served as readout for BTK, CSK, ABL2, EPHA4 and YES1 degradation after degrader treatment.
293A BTK-GFP-Ires-RFP, CSK-GFP-CHYSEL-mCherry, GFP-ABL2-CHYSEL-mCherry, EPHA4-GFP-CHYSEL-mCherry, or YES1-GFP-CHYSEL-mCherry sensor cells were generated by lentiviral vector transduction using the pLenti6-BTK-GFP-Ires-RFP, pLenti6-mCherryCHYSEL-EGFP-ABL2, pLenti6-CSK-GFP-CHYSEL-mCherry, pLenti6-EPHA4-GFP-CHYSEL-mCherry or pLenti6-YES1-GFP-CHYSEL-mCherry sensor construct described before. Lentiviral particles were produced in HEK293FT cells (Invitrogen R70007) by co-transfection of 500 ng pLenti6-BTK-GFP-Ires-RFP or pLenti6-IKZF3-GFP-Ires-RFP, 500 ng delta8.71 and 200 ng pVSVG diluted in 100 μL OptiMEM serum free medium (Invitrogen #11058-021) that was mixed after 5 min preincubation with 3 μL of Lipofectamine2000 (Invitrogen #11668-019) in 97 μL OptiMEM serum free medium. The mix was incubated for another 20 min at RT and then added on 1 mL of a freshly prepared suspension of HEK293FT cells in a well of a 6-well plate (concentration 1.2×10^6 cells/mL). 1 day after transfection, the medium was replaced with 1.5 mL of complete growth medium (DMEM high Glucose+10% FCS+1% L-Glutamine+1% NEAA+1% NaPyr.). 48 h post transfection supernatant containing viral transducing particles was collected and frozen at −80° C.
2 days before transduction with viral particles 1×10^5 HEK293A cells (Invitrogen R70507) were seeded in 2 mL growth medium in a well of a 6-well plate. Infection was performed with 90 μL of collected supernatant containing viral transducing particles in 1 mL medium including 8 µg/mL polybrene. 24 h post infection, stably transfected cells were selected with blasticidin at a concentration of 8 μg/mL referred to as stable HEK293A sensor cells.
Stable HEK293A sensor cells were maintained in complete growth medium (DMEM high Glucose+10% FCS+1% L-Glutamine+1% NEAA+1% NaPyr.) with passaging performed twice per week. […] GFP and RFP are read in the channels called FITC and PE, respectively.
Concentration response curves plotting relative reduction of the GFP signal (measured by flow cytometry) versus 10 compound concentrations (starting concentration 10 μM, 3 fold dilution steps) of the compounds allowed generation of DC50 values.

| Compound | BTK degradation Amax (BTK) | DC50 (BTK) | CSK Amax (CSK) | DC50 (CSK) |
| --- | --- | --- | --- | --- |
| COc1ccc(C(=O)N2CCC3(CCN(C(=O)CN4CCN(c5cc(Nc6ncc(C(=O)Nc7c(C)cccc7Cl)s6)nc(C)n5)CC4)CC3)CC2)cc1N1CCC(=O)NC1=O [compound 07, N-(2-chloro-6-methylphenyl)-2-((6-(4-(2-(9-(3-(2,4-dioxotetrahydropyrimidin-1(2H)-yl)-4-methoxybenzoyl)-3,9-diazaspiro[5.5]undecan-3-yl)-2-oxoethyl)piperazin-1-yl)-2-methylpyrimidin-4-yl)amino)thiazole-5-carboxamide] | 0.9% | 9.3 nM | 1% | 23 nM |
| COc1ccc(C(=O)N2CCC3(CCN(C(=O)CCCCCCCN4CCN(c5cc(Nc6ncc(C(=O)Nc7c(C)cccc7Cl)s6)nc(C)n5)CC4)CC3)CC2)cc1N1CCC(=O)NC1=O [compound 06, N-(2-chloro-6-methylphenyl)-2-((6-(4-(8-(9-(3-(2,4-dioxotetrahydropyrimidin-1(2H)-yl)-4-methoxybenzoyl)-3,9-diazaspiro[5.5]undecan-3-yl)-8-oxooctyl)piperazin-1-yl)-2-methylpyrimidin-4-yl)amino)thiazole-5-carboxamide] | 2.1% | 4.7 nM | 4% | 4 nM |
